Measurements from patent US20240239804A1, “FUROINDAZOLE DERIVATIVES AS ANTAGONISTS OR INHIBITORS OF GPR84” (Bayer Aktiengesellschaft, priority 2021, published 2024).

The compounds below were run against T1, human GPR84 receptor (Homo sapiens, UniProt Q9NQS5) (assay: cAMP HTRF assay for identification of cellular GPR84 antagonists). Settings: CHO-K1 cells stably expressing human GPR84; Forskolin plus agonist 6-OAU; cAMP HTRF readout; average or median values.
T1 construct: frozen aliquots prepared by acCELLerate; host or cells: CHO-K1
Format: cell-based
How it was run: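 CHO-K1 cells stably expressing human GPR84, preincubated with compound 30 min at room temperature, then stimulated 30 min with 6-OAU (EC80) plus forskolin (EC90). cAMP measured by HTRF 665/620 nm ratio after 60 min lysis; 11 concentrations from 20 μM to 0.07 nM in duplicate, IC50 by 4-parameter fit.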

T1 sequence (Q9NQS5 whole entry): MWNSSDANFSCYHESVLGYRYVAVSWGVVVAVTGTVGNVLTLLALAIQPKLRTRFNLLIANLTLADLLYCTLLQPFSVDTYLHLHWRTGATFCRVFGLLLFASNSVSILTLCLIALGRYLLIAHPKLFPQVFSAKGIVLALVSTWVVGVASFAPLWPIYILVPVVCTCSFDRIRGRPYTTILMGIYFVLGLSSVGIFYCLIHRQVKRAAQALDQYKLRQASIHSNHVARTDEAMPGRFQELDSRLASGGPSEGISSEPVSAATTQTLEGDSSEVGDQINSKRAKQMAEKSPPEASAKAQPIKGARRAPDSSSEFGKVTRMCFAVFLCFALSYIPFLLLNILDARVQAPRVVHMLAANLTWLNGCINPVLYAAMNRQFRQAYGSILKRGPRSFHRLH

Compound	IC50 [µM]
Cc1c(C(=O)N2CCN(S(C)(=O)=O)CC2)oc2c1-c1nn(Cc3ccc(Cl)cc3)cc1CC2 [Example 67, {2-[(4-chlorophenyl)methyl]-8-methyl-4,5-dihydro-2H-furo[2,3-g]indazol-7-yl}[4-(methanesulfonyl)piperazin-1-yl]methanone]	7.83
Cc1c(C(=O)N2CC3CC3C2)oc2c1-c1nn(Cc3ccc(Cl)cc3)cc1CC2 (stereo not drawn) [Example 68, (3-azabicyclo[3.1.0]hexan-3-yl){2-[(4-chlorophenyl)methyl]-8-methyl-4,5-dihydro-2H-furo[2,3-g]indazol-7-yl}methanone]	7.97
Cc1c(C(=O)N(C)Cc2cccnc2)oc2c1-c1nn(Cc3ccc(Cl)cc3)cc1CC2 [Example 69, 2-[(4-chlorophenyl)methyl]-N,8-dimethyl-N-[(pyridin-3-yl)methyl]-4,5-dihydro-2H-furo[2,3-g]indazole-7-carboxamide]	9.4
Cc1c(C(=O)NCCC#N)oc2c1-c1nn(Cc3ccc(Cl)cc3)cc1CC2 [Example 70, 2-[(4-chlorophenyl)methyl]-N-(2-cyanoethyl)-8-methyl-4,5-dihydro-2H-furo[2,3-g]indazole-7-carboxamide]	9.5
Cc1c(C(=O)N2CCC(O)CC2)oc2c1-c1nn(Cc3ccc(Cl)cc3)cc1CC2 [Example 71, {2-[(4-chlorophenyl)methyl]-8-methyl-4,5-dihydro-2H-furo[2,3-g]indazol-7-yl}(4-hydroxypiperidin-1-yl)methanone]	9.57
Cc1c(C(=O)N(C)Cc2ccco2)oc2c1-c1nn(Cc3ccc(Cl)cc3)cc1CC2 [Example 72, 2-[(4-chlorophenyl)methyl]-N-[(furan-2-yl)methyl]-N,8-dimethyl-4,5-dihydro-2H-furo[2,3-g]indazole-7-carboxamide]	9.96
Cc1c(C(=O)N(C)Cc2ccn(C)n2)oc2c1-c1nn(Cc3ccc(Cl)cc3)cc1CC2 [Example 73, 2-[(4-chlorophenyl)methyl]-N,8-dimethyl-N-[(1-methyl-1H-pyrazol-3-yl)methyl]-4,5-dihydro-2H-furo[2,3-g]indazole-7-carboxamide]	10.3
Cc1c(C(=O)N(C)Cc2ncc[nH]2)oc2c1-c1nn(Cc3ccc(Cl)cc3)cc1CC2 [Example 74, 2-[(4-chlorophenyl)methyl]-N-[(1H-imidazol-2-yl)methyl]-N,8-dimethyl-4,5-dihydro-2H-furo[2,3-g]indazole-7-carboxamide]	10.8
Cc1c(C(=O)N2CC(C)OC(C)C2)oc2c1-c1nn(Cc3ccc(Cl)cc3)cc1CC2 (stereo not drawn) [Example 75, {2-[(4-chlorophenyl)methyl]-8-methyl-4,5-dihydro-2H-furo[2,3-g]indazol-7-yl}(2,6-dimethylmorpholin-4-yl)methanone]	12.3
Cc1c(C(=O)N(C)Cc2cnn(C)c2)oc2c1-c1nn(Cc3ccc(Cl)cc3)cc1CC2 [Example 76, 2-[(4-chlorophenyl)methyl]-N,8-dimethyl-N-[(1-methyl-1H-pyrazol-4-yl)methyl]-4,5-dihydro-2H-furo[2,3-g]indazole-7-carboxamide]	13
Cc1c(C(=O)NC2CCOCC2)oc2c1-c1nn(Cc3ccc(Cl)cc3)cc1CC2 [Example 77, 2-(4-chlorobenzyl)-8-methyl-N-(tetrahydro-2H-pyran-4-yl)-4,5-dihydro-2H-furo[2,3-g]indazole-7-carboxamide]	13.8
Cc1c(C(=O)NCc2ncc[nH]2)oc2c1-c1nn(Cc3ccc(Cl)cc3)cc1CC2 [Example 78, 2-[(4-chlorophenyl)methyl]-N-[(1H-imidazol-2-yl)methyl]-8-methyl-4,5-dihydro-2H-furo[2,3-g]indazole-7-carboxamide]	14.3
Cc1c(C(=O)N2CCC(CO)CC2)oc2c1-c1nn(Cc3ccc(Cl)cc3)cc1CC2 [Example 79, {2-[(4-chlorophenyl)methyl]-8-methyl-4,5-dihydro-2H-furo[2,3-g]indazol-7-yl}[4-(hydroxymethyl)piperidin-1-yl]methanone]	15.5
COCCN(C)C(=O)c1oc2c(c1C)-c1nn(Cc3ccc(Cl)cc3)cc1CC2 [Example 80, 2-[(4-chlorophenyl)methyl]-N-(2-methoxyethyl)-N,8-dimethyl-4,5-dihydro-2H-furo[2,3-g]indazole-7-carboxamide]	15.9
Cc1c(C(=O)NC2CCC(=O)NC2)oc2c1-c1nn(Cc3ccc(Cl)cc3)cc1CC2 (stereo not drawn) [Example 81, 2-[(4-chlorophenyl)methyl]-8-methyl-N-(6-oxopiperidin-3-yl)-4,5-dihydro-2H-furo[2,3-g]indazole-7-carboxamide]	16.1
Cc1c(C(=O)N2CCC[C@@H]2C(N)=O)oc2c1-c1nn(Cc3ccc(Cl)cc3)cc1CC2 [Example 82, 1-{2-[(4-chlorophenyl)methyl]-8-methyl-4,5-dihydro-2H-furo[2,3-g]indazole-7-carbonyl}-D-prolinamide]	16.4
Cc1c(C(=O)N2CCC(C(N)=O)CC2)oc2c1-c1nn(Cc3ccc(Cl)cc3)cc1CC2 [Example 83, 1-{2-[(4-chlorophenyl)methyl]-8-methyl-4,5-dihydro-2H-furo[2,3-g]indazole-7-carbonyl}piperidine-4-carboxamide]	16.4
Cc1c(C(=O)N(C)Cc2ccnn2C)oc2c1-c1nn(Cc3ccc(Cl)cc3)cc1CC2 [Example 84, 2-[(4-chlorophenyl)methyl]-N,8-dimethyl-N-[(1-methyl-1H-pyrazol-5-yl)methyl]-4,5-dihydro-2H-furo[2,3-g]indazole-7-carboxamide]	16.4
Cc1c(C(=O)N(C)CCO)oc2c1-c1nn(Cc3ccc(Cl)cc3)cc1CC2 [Example 85, 2-[(4-chlorophenyl)methyl]-N-(2-hydroxyethyl)-N,8-dimethyl-4,5-dihydro-2H-furo[2,3-g]indazole-7-carboxamide]	17
Cc1c(C(=O)NC(C)(C)C#N)oc2c1-c1nn(Cc3ccc(Cl)cc3)cc1CC2 [Example 86, 2-[(4-chlorophenyl)methyl]-N-(2-cyanopropan-2-yl)-8-methyl-4,5-dihydro-2H-furo[2,3-g]indazole-7-carboxamide]	17.1
Cc1c(C(=O)N2CCCCC2)oc2c1-c1nn(Cc3ccc(Cl)cc3)cc1CC2 [Example 87]	17.1
Cc1c(C(=O)N2CCCC(C(N)=O)C2)oc2c1-c1nn(Cc3ccc(Cl)cc3)cc1CC2 (stereo not drawn) [Example 88, 1-{2-[(4-chlorophenyl)methyl]-8-methyl-4,5-dihydro-2H-furo[2,3-g]indazole-7-carbonyl}piperidine-3-carboxamide]	17.3
Cc1c(C(=O)N(C)Cc2ccccn2)oc2c1-c1nn(Cc3ccc(Cl)cc3)cc1CC2 [Example 89, 2-[(4-chlorophenyl)methyl]-N,8-dimethyl-N-[(pyridin-2-yl)methyl]-4,5-dihydro-2H-furo[2,3-g]indazole-7-carboxamide]	17.4
Cc1c(C(=O)N2CCS(=O)(=O)CC2)oc2c1-c1nn(Cc3ccc(Cl)cc3)cc1CC2 [Example 90]	18.9
Cc1c(C(=O)N2CCC[C@H]2C(N)=O)oc2c1-c1nn(Cc3ccc(Cl)cc3)cc1CC2 [Example 91, 1-{2-[(4-chlorophenyl)methyl]-8-methyl-4,5-dihydro-2H-furo[2,3-g]indazole-7-carbonyl}-L-prolinamide]	≥ 20
Cc1c(C(=O)NCCN2CCN(C)CC2)oc2c1-c1nn(Cc3ccc(F)cc3Cl)cc1CC2 [Example 93]	0.82
Cc1c(C(=O)NCc2ccon2)oc2c1-c1nn(Cc3ccc(F)cc3Cl)cc1CC2 [Example 94]	0.28
